experiment: Cytotoxicity against mouse MDR1 transfected L5178YvMDR cell line

Going from CN1C2C3C4N(C)C5C(C1[C@]5(CO)[C@H]3c1ccccc1)[C@@H](c1ccccc1)[C@@]24CO [1,7-dihydroxymethyl-3,9-dimethyl-6,12-diphenyl-3,9-diazahexacyclo[6.4.0.0 2.7.0 4.11.0. 5.10]dodecane] to CC(C)(C)OC(=O)N1C2C3C4N(C(=O)OC(C)(C)C)C5C(C1[C@]5(CO)[C@H]3c1ccccc1)[C@@H](c1ccccc1)[C@@]24CO [3,9-di(tert.)butoxycarbonyl-1,7-dihydroxymethyl-6,12-diphenyl-3,9-diazahexacyclo[6.4.0.0(2.7)0(4.11)0(5.10)]dodecane], the IC50 falls from 7.5 µM to 3.2 µM (2.3-fold). The second is the more potent here.

First: O=C(Oc1ccccc1)N1C2C3C4N(C(=O)Oc5ccccc5)C5C(C1[C@]5(CO)[C@H]3c1ccccc1)[C@@H](c1ccccc1)[C@@]24CO [1,7-dihydroxymethyl-6,12-diphenyl-3,9-diphenoxycarbonyl-3,9-diazahexacyclo[6.4.0.0(2.7)0(4.11)0(5.10)]dodecane]
Second: OC[C@]12C3C4C1N(Cc1ccccc1)C1C(C(N3Cc3ccccc3)[C@]1(CO)[C@H]4c1ccccc1)[C@H]2c1ccccc1 [3,9-dibenzyl-1,7-dihydroxymethyl-6,12-diphenyl-3,9-diazahexacyclo[6.4.0.0(2.7)0(4.11)0(5.10)]dodecane]
The IC50 of the first is 1.6-fold higher: 21 µM for the first, 13.3 µM for the second.

From BindingDB's records for doi:10.1021/jm058046w (Martin-Luther-University Halle-Wittenberg, 2006)
